The values that follow are results of earlier work, collected in patent US7481758B2, “Pharmaceutically enhanced low-energy radiosurgery” (Sirius Medicine, LLC, priority 1997, dated 2009).

In one data set the test system is lymphocytes. Conditions: in lymphocytes; low-energy photons.
The test system of another data set is brain tumors. Conditions: low-energy x-rays and iodine, brain tumors in rabbits.

Turning to `II` [iodine], the dose enhancement result in the data set with lymphocytes is given as “up to 3”; with brain tumors, “about 30%”.
